Experiment: Oral dosing to rats, bioavailability
Type: in vivo
Conditions: compared to analogous dosing of the compound of Example 36

- Bioavailability: substantially higher bioavailability
SMILES: CNCCN(C)C(=O)n1nc(COc2ccc(Cl)c(Oc3cc(Cl)cc(C#N)c3)c2)c2cccnc21.Cl [Example 59, 2-[[(3-{[4-chloro-3-(3-chloro-5-cyanophenoxy)phenoxy]methyl}-1H-pyrazolo[3,4-b]pyridin-1-yl)carbonyl](methyl)amino]-N-methylethanaminium chloride]

Source: patent publication US7807684B2, “HIV reverse transcriptase inhibitors” (Merck Sharp & Dohme Corp., priority 2005, dated 2010)
